Patent US20130252930A1 (BIOMARIN PHARMACEUTICAL INC., priority 2010, published 2013)
pIC50: −log10 of the molar value. Where two headings read alike, the source gives them in different places.

Key:
[1] = biological target: T1, CYP17 (human testicular microsome) (Homo sapiens, UniProt P05093); experiment: CYP17 enzymatic assay (IC50) (Biological Example 4); assay type: biochemical; conditions: human testicular microsome
T1 construct: using microsomal fraction from human testis (Celsis Cat #S00110) as the enzyme source; tissue Celsis S00110; host or cells: human testis microsomal fraction
T1 sequence (P05093 1-508): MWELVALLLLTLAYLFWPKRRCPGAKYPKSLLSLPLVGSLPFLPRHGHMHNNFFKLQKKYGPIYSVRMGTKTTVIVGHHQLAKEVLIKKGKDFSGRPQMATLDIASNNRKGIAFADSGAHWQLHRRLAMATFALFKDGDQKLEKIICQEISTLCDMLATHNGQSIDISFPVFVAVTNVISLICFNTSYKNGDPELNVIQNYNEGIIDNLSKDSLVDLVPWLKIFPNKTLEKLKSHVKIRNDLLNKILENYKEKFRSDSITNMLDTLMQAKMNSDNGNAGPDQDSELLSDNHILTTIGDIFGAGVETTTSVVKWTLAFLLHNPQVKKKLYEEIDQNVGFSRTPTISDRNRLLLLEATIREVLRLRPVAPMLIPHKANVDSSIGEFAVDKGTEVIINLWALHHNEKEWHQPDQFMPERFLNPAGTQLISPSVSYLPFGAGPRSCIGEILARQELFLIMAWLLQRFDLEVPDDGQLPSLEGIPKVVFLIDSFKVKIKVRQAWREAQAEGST

[2] = test system: rat Cyp11B enzyme (rat adrenal mitochondria); experiment: CYP11B enzymatic assay (% inhibition at 100 nM) (Biological Example 9); assay type: biochemical
Method: Adrenals excised from Sprague Dawley rats were homogenized, and mitochondria fraction were prepared by a series of centrifugation as described in Shuji Ohno, et al. J. of Steroid Biochemistry & Molecular Biology 2002, 80, 355-363. Prepared mitochondria protein was washed and resuspended in Buffer B (0.21 M mannitol, 70 mM sucrose, 5 mM MgCl2, 0.5 mM CaCl2, 20 mM Tris-HCl (pH 7.4) and 1 mM DTT, […]). The protein concentration was determined by BCA assay and stored as 10 μL aliquots at −80° C.
The rat Cyp11B enzyme assay was performed in 96-well plates. Typical assays were carried out in total 50 μL volume that included test compounds at 100 nM concentration, 1× Buffer B, 0.5 mM NADPH, 0.1 μM 11-deoxycortisol, and 2 μL of prepared rat adrenal mitochondria (added last). Reaction without test compound served as positive control and reaction without NADPH served as negative control. Reactions were allowed to incubate at 37° C. for 60 min with gentle shaking. The reaction was stopped by directly applying the enzymatic reaction mixture (1:5 diluted in ELISA assay buffer) to ELISA plate for evaluation of cortisol concentration according to manufacturer's protocol (Assay Design).
The mean absorbance value for each sample was used to determine the corresponding concentration from the standard curve. Amount of cortisol in the negative control (reaction that dis not include NADPH) was subtracted from total cortisol. Percent inhibition (inhibition %) of the compound was calculated using normalized cortisol concentration based on following formula: 100−([Cortisol] of compound/[Cortisol] of positive control *100).

[3] = biological target: T1, CYP17 (human testicular microsome); experiment: CYP17 enzymatic assay (% inhibition at 1 nM) (Biological Example 12); assay type: biochemical; conditions: compound at 1 nM, read-out: CYP17 enzymatic assay % inhibition at 1 nM (Biological Example No. 12)
[4] = biological target: T2, Cyp21 enzyme (Human HEK 293-Cyp21 stable transfected cells) (Homo sapiens, UniProt P08686); experiment: CYP21-HEK293 enzymatic assay (IC50) (Biological Example 11); assay type: cell-based; conditions: HEK 293-Cyp21 cells; read-out: CYP21-HEK293 enzymatic assay IC50 (Biological Example No. 11)
T2 construct: expressed in transfected cells
T2 sequence (P08686 1-495): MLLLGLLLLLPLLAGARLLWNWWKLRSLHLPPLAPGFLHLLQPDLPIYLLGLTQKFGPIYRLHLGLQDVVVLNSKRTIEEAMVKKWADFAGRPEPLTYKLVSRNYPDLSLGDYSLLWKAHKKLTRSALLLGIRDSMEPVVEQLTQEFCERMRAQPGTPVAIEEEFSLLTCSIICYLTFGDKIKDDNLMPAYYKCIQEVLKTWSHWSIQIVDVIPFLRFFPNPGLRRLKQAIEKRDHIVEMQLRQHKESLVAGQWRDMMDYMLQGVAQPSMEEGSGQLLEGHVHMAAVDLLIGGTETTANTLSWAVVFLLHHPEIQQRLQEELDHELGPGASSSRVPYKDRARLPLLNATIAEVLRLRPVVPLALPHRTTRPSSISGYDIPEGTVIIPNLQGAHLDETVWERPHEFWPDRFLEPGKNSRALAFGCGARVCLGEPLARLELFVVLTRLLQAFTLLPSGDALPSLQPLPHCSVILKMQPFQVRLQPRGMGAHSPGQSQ

[5] = biological target: T1, CYP17 (human testicular microsome); experiment: CYP17 enzymatic assay (% inhibition at 10 nM), version 1 (Biological Example 5); assay type: biochemical
[6] = Human liver microsome stability assay (Biological Example 8b); conditions: liver microsomes, pH 7.4
Method: The reaction was started with addition of excess NADPH (5 mg/mL, 15 μL in 0.1 M potassium phosphate buffer, 1.0 mM EDTA, pH 7.4), the total volume is 45 μL (compound final concentration was 1 μM). […] 50 μL of the supernatant was transferred from each well into a 96-well sample plate containing 50 μL of ultra-pure water (Millipore) for LC-MS/MS analysis.

[7] = read-out: CYP17 enzymatic assay IC50 (Biological Example No. 4)
[8] = compound at 10 nM, read-out: CYP17 enzymatic assay % inhibition at 10 nM (Biological Example No. 5)

Row | SMILES | pIC50 [1, 7] | CYP11B enzymatic assay % inhibition at 100 nM (Biological Example No. 9) ([2]; compound at 100 nM) | inhibition at 0.001 µM [3] | pIC50 [4] | inhibition at 0.01 µM [5, 8] | other results
1 | CN1C(=O)C[C@@]2(C)C1=CCC1C2CC[C@]2(C)C(c3cccnc3)=CCC12 (stereo partly drawn) [Compound 185, (3aR,5aS)-1,3a,5a-trimethyl-6-(pyridin-3-yl)-3,3a,3b,4,5,5a,8,8a,8b,9-decahydroindeno[5,4-e]indol-2(1H)-one] | > 7.96 | U (U means the compound had a percent inhibition of greater than or equal to 32%) | > 50% | – | – | –
2 | CCC(=O)N1CCC[C@@]2(C)[C@@H](CC[C@@H]3[C@@H]2CC[C@]2(C)C(n4ccnc4)=CC[C@@H]32)C1 [Compound 441, 1-((5aR,5bS,7aS,10aS,10bR,12aR)-8-(1H-imidazol-1-yl)-5a,7a-dimethyl-3,4,5,5a,5b,6,7,7a,10,10a,10b,11,12,12a-tetradecahydrocyclopenta[5,6]naphtho[2,1-c]azepin-2(1H)-yl)propan-1-one] | > 7.96 | U (U means the compound had a percent inhibition of greater than or equal to 32%) | 10 to 50% | 7.00 to 8.00 | – | –
3 | Cc1cncc(C2=CCC3C4CC=C5N(C)C(=O)CCC[C@]5(C)C4CC[C@]23C)c1 (stereo partly drawn) [Compound 182, (5aR,7aS)-1,5a,7a-trimethyl-8-(5-methylpyridin-3-yl)-3,4,5,5a,5b,6,7,7a,10,10a,10b,11-dodecahydrocyclopenta[5,6]naphtho[2,1-b]azepin-2(1H)-one] | – | U (U means the compound had a percent inhibition of greater than or equal to 32%) | – | – | 50 to 80% | –
4 | CCC(=O)N1CCC2CCC3C(CC[C@]4(C)C(c5cccnc5)=CCC34)[C@@]2(C)CC1 (stereo partly drawn) [Compound 436, 1-((5aS,7aS)-5a,7a-dimethyl-8-(pyridin-3-yl)-1,2,5,5a,5b,6,7,7a,10,10a,10b,11,12,12a-tetradecahydrocyclopenta[5,6]naphtho[1,2-d]azepin-3(4H)-yl)propan-1-one] | > 7.96 | T (T means the compound had a percent inhibition of less than 32% when tested at 100 nM) | 10 to 50% | < 6.00 | – | –
5 | CN1C(=O)CCC[C@@]2(C)C1=CCC1C2CC[C@]2(C)C(c3cccnc3)=CCC12 (stereo partly drawn) [Compound 180, (5aR,7aS)-1,5a,7a-trimethyl-8-(pyridin-3-yl)-3,4,5,5a,5b,6,7,7a,10,10a,10b,11-dodecahydrocyclopenta[5,6]naphtho[2,1-b]azepin-2(1H)-one] | > 7.96 | U (U means the compound had a percent inhibition of greater than or equal to 32%) | – | – | > 80% | half-life at 1 μM [6]: 1 to 50 min
6 | CN1C(=O)CC[C@@]2(C)C1=CC[C@@H]1[C@@H]2CC[C@]2(C)C(n3ccnc3)=CC[C@@H]12 [Compound 183, (4aR,6aS)-7-(1H-imidazol-1-yl)-1,4a,6a-trimethyl-4,4a,4b,5,6,6a,9,9a,9b,10-decahydro-1H-indeno[5,4-f]quinolin-2(3H)-one] | – | U (U means the compound had a percent inhibition of greater than or equal to 32%) | – | – | 50 to 80% | –
7 | COC(=O)N1CCC[C@@]2(C)[C@@H](CC[C@@H]3[C@@H]2CC[C@]2(C)C(n4ccnc4)=CC[C@@H]32)C1 [Compound 442, (5aR,5bS,7aS,10aS,10bR,12aR)-methyl 8-(1H-imidazol-1-yl)-5a,7a-dimethyl-3,4,5,5a,5b,6,7,7a,10,10a,10b,11,12,12a-tetradecahydrocyclopenta[5,6]naphtho[2,1-c]azepine-2(1H)-carboxylate] | – | U (U means the compound had a percent inhibition of greater than or equal to 32%) | 10 to 50% | < 7.00 | – | –
8 | CCC(=O)N1CCC[C@@]2(C)C(CCC3C2CC[C@]2(C)C(c4cccnc4)=CCC32)C1 (stereo partly drawn) [Compound 435, 1-((5aR,7aS)-5a,7a-dimethyl-8-(pyridin-3-yl)-3,4,5,5a,5b,6,7,7a,10,10a,10b,11,12,12a-tetradecahydrocyclopenta[5,6]naphtho[2,1-c]azepin-2(1H)-yl)propan-1-one] | > 7.96 | U (U means the compound had a percent inhibition of greater than or equal to 32%) | 10 to 50% | < 6.00 | – | –
9 | COc1cncc(C2=CCC3C4CC=C5N(C)C(=O)C[C@]5(C)C4CC[C@]23C)c1 (stereo partly drawn) [Compound 187, (3aR,5aS)-6-(5-methoxypyridin-3-yl)-1,3a,5a-trimethyl-3,3a,3b,4,5,5a,8,8a,8b,9-decahydroindeno[5,4-e]indol-2(1H)-one] | > 7.96 | T (T means the compound had a percent inhibition of less than 32% when tested at 100 nM) | > 50% | – | – | half-life at 1 μM [6]: 1 to 50 min
10 | COc1cncc(C2=CCC3C4CC=C5N(C)C(=O)CCC[C@]5(C)C4CC[C@]23C)c1 (stereo partly drawn) [Compound 181, (5aR,7aS)-8-(5-methoxypyridin-3-yl)-1,5a,7a-trimethyl-3,4,5,5a,5b,6,7,7a,10,10a,10b,11-dodecahydrocyclopenta[5,6]naphtho[2,1-b]azepin-2(1H)-one] | – | U (U means the compound had a percent inhibition of greater than or equal to 32%) | – | – | > 80% | half-life at 1 μM [6]: 1 to 50 min
11 | C[C@]12CCCN(S(C)(=O)=O)CC1CC[C@@H]1[C@@H]2CC[C@]2(C)C(n3ccnc3)=CC[C@@H]12 (stereo partly drawn) [Compound 437, (5aR,7aS)-8-(1H-imidazol-1-yl)-5a,7a-dimethyl-2-(methylsulfonyl)-1,2,3,4,5,5a,5b,6,7,7a,10,10a,10b,11,12,12a-hexadecahydrocyclopenta[5,6]naphtho[2,1-c]azepine] | – | – | – | – | – | pIC50 ([1]; read-out: Biological Example No. 4: CYP17 enzymatic assay IC50): < 7.60; Biological Example No. 9: CYP11B enzymatic assay % inhibition at 100 nM ([2]; compound at 100 nM): U (U means the compound had a percent inhibition of greater than or equal to 32%)
12 | CC(=O)O[C@H]1CC[C@@]2(C)C(=CC[C@H]3C4=CC=C(c5cccnc5)[C@@]4(C)CC[C@@H]32)C1 [Compound 78, (3S,10R,13S)-10,13-dimethyl-17-(pyridin-3-yl)-2,3,4,7,8,9,10,11,12,13-decahydro-1H-cyclopenta[a]phenanthren-3-yl acetate] | – | – | – | – | – | inhibition at 0.01 µM ([5]; 10 nM compound, DHEA by ELISA, read-out: Biological Example No. 5: CYP17 percent inhibition at 10 nM (version 1)): 1 to 50%; Biological Example No. 9: CYP11B percent inhibition at 100 nM ([2]; 100 nM compound, cortisol by ELISA): U (U means the compound had a percent inhibition of greater than or equal to 32%)
